How the values were obtained:
[1] = biological target: T1, MAT2A homodimer (Homo sapiens, UniProt P31153); experiment: MAT2A inhibition (biochemical, liberated phosphate, PiColorLock Gold); conditions: recombinant MAT2A homodimer; IC50 bin with Max Inh.; read-out: Enzyme Inhibition Bin
T1 construct: inferred from Ni sepharose purification with imidazole elution; made in house; host or cells: Sf9 insect cells, baculovirus (Bac to Bac, pFASTBAC1)
Experimental: Mat2A protein was expressed by recombinant baculovirus in SF9 infected cells using the Bac to Bac system cloned into the pFASTBAC1 vector (Invitrogen, Carlsbad, Calif.). Recombinant MAT2A was isolated from the cell lysate of 150 g of infected cells using HP Ni sepharose column chromatography. Recombinant MAT2A homodimer was eluted with 250 and 500 mM imidazole, and fractions containing MAT2A were identified by sodium dodecyl sulfate polyacrylamide gel electrophoresis and pooled.
For determination of the inhibitory potency of compounds against the MAT2A homodimer, protein was diluted to 4 μg/mL in assay buffer (50 mM Tris, pH 8.0, 50 mM KCl, 15 mM MgCl2, 0.3 mM EDTA, 0.005% [w/v] bovine serum albumin [BSA]). Test compound was prepared in 100% dimethyl sulfoxide (DMSO) at 50× the desired final concentration. A 1 μL volume of compound dilution was added to 40 μL of enzyme dilution and the mixture was allowed to equilibrate for 60 minutes at 25° C. The enzymatic assay was initiated by the addition of 10 μL of substrate mix (500 μM ATP, pH 7.0, 400 μM L-methionine in 1× assay buffer), and the mixture was incubated for a further 60 minutes at 25° C. The reaction was halted and the liberated phosphate released by the enzyme in stoichiometric amounts by the production of S-adenosyl methionine (SAM) was measured using the PiColorLock Gold kit (Innova Biosciences, UK). Absolute product amounts were determined by comparison to a standard curve of potassium phosphate buffer, pH 8.0. The compounds were also tested in a secondary assay utilizing 1 μg/mL MAT2A and incubated for 5 hours at 25° C. before halting and processing as above.
Specific compounds disclosed herein were tested in the foregoing assay and they were determined to inhibit MAT2A with an IC50. See, Table 1 below.

[2] = test system: SAM in HCT116 human colon carcinoma cell line with MTAP gene deleted (MTAP −/−); experiment: Cellular assay of target engagement (SAM), LC-MS/MS, 72 hrs; format: cell-based; conditions: HCT-116, IC50 bin with Max Inh., read-out: Cell 72 h SAM Inhibition (MTAP −/−)
Experimental: Measurement of MAT2A activity in cells was made by direct quantitation of the abundance of the product of its enzymatic activity, SAM. Cancer cells were treated with candidate MAT2A inhibitors for a suitable incubation period, and the cells were then lysed using a reagent which quenched any further enzyme activity. Soluble metabolites including SAM were collected and SAM itself was directly measured from the lysate using quantitative LC-MS/MS.
A typical assay was performed using an HCT116 human colon carcinoma cell line which was genetically engineered to delete the MTAP gene (commercially available from Horizon Discovery). This cell line was utilized because it was determined that loss of the MTAP gene predicts sensitivity to MAT2A inhibitors. Cells were plated in 96-well dishes at appropriate cell density. Following 24 hours, cells were then treated with the candidate MAT2A inhibitor. Prior to addition to cells, the compound was first serially diluted in 100% DMSO, typically as a 3-fold serial dilution starting at 500× top dose with 10 dose points including DMSO only control. Compound was then transferred to a working stock plate in cell culture media by adding 5 μL of compound in DMSO to 495 μL of cell culture media. This working stock was then added to cells via a further 5-fold dilution, by adding 25 μL of working stock to 100 μL of cells in culture media. Following compound addition, cells were incubated at 37° C./5% CO2 for 72 hrs.
To quantitate SAM levels following compound treatment, cells were gently washed once in ammonium carbonate buffer (75 mM at pH 7.4), placed on dry ice, and lysed with metabolite extraction buffer (80% cold methanol and 20% water (v/v) with acetic acid at 1M final concentration with 200 ng/mL deuterated d3-SAM as internal control). Following centrifugation at 4° C. at 3,200 rpm for 30 minutes, the supernatant was collected and stored at −80° C. until analysis by Liquid Chromatography with tandem Mass Spectrometry (LC-MS/MS). LC-MS/MS analysis was performed using an API6500 Mass Spectrometer (Sciex, Framingham, Mass., USA) operating in positive ion spray mode and equipped with a Waters UPLC Acquity (Waters, Milford, Mass., USA) BEH Amide column. Multiple Reaction Monitoring data was acquired for SAM and the d3-SAM standard, using a mass transition pair at m/z 399.2→250.1 and 402.2→250.1, respectively. In a typical LC-MS/MS analysis, the initial flow rate was 0.5 ml/min of 25% mobile phase A (acetonitrile and water at 5:95 (v/v) with 1% formic acid and 10 mM ammonium acetate) and 75% mobile phase B (acetonitrile and water at 95:5 (v/v) with 1% formic acid and 10 mM ammonium acetate), 0.2-0.5 minutes with 75%-35% mobile phase B, 25%-65% mobile phase A, at 0.5 min 65% mobile phase A and 35% mobile phase B, 1.0-1.1 minutes with 35%-75% mobile phase B, 65%-25% mobile phase A, at 1.1 min 25% mobile phase A and 75% mobile phase B with a total run time of 1.5 minutes.
Specific compounds disclosed herein were tested in the foregoing assay and they were determined to inhibit SAM with an IC50. See, Table 1 below.

[3] = test system: HCT116 MTAP−/−; experiment: Inhibition of cellular proliferation, 4 days, Cell Titer Glo, HCT116 MTAP−/−; format: cell-based; conditions: Homo sapiens, HCT-116, 96 h, IC50 bin with Max Inh., read-out: 4 Day Relative Growth Inhibition (MTAP −/−)
Experimental: (§1) Test compound impact on cancer cell growth was assessed by treating cancer cells with compound for 4 days and then measuring proliferation using an ATP-based cell proliferation readout (Cell Titer Glo, Promega Corporation).
(§2) In a typical assay an isogenic pair of HCT116 human colon carcinoma cell lines which vary only in MTAP deletion status (HCT116 MTAP+/+ and HCT116 MTAP−/−) were plated in 96-well dishes at appropriate cell density. Following 24 hours, cells were then treated with the candidate MAT2A inhibitor. Prior to addition to cells, the compound was first serially diluted in 100% DMSO, typically as a 3-fold serial dilution starting at 500× top dose with 10 dose points including DMSO only control. Compound was then transferred to a working stock plate in cell culture media by adding 5 μL of compound in DMSO to 495 μL of cell culture media. This working stock was then added to cells via a further 5-fold dilution, by adding 25 μL of working stock to 100 μL of cells in culture media. Following compound addition, cells were incubated at 37° C./5% CO2 for 4 days.
(§3) To measure inhibition of cellular proliferation, cells were allowed to equilibrate to room temperature for 30 minutes, and were then treated with 125 μL of Cell Titer Glo reagent. The plate was then covered with aluminum foil and shaken for 15 minutes to ensure complete mixing and full cell lysis. Luminescent signal was then measured using a plate-based luminometer Veritas version 1.9.2 using ATP standard curve to confirm assay reproducibility from run to run. This luminescence measure was converted to a proliferation index by subtracting from each data point the ATP luminescence signal measured from a bank (no cells) well and dividing by the ATP luminescence signal measured in 0.2% DMSO control well adjusted for signal in blank well. Compound activity was then represented as a percentage change in proliferation relative to a within-plate DMSO control against log 10 of compound concentration in molar (M) units.
(§4) Specific compounds disclosed herein were tested in the foregoing assay and they were determined to inhibit cellular proliferation with an IC50. See, Table 1 below.

[4] = test system: HCT116 MTAP+/+; experiment: Inhibition of cellular proliferation, 4 days, Cell Titer Glo, HCT116 MTAP+/+; format: cell-based; conditions: Homo sapiens, HCT-116, 96 h, IC50 bin with Max Inh., read-out: 4 Day Relative Growth Inhibition (MTAP +/+)
Experimental: as §1, §2, §3, §4

T1 sequence (P31153 whole entry): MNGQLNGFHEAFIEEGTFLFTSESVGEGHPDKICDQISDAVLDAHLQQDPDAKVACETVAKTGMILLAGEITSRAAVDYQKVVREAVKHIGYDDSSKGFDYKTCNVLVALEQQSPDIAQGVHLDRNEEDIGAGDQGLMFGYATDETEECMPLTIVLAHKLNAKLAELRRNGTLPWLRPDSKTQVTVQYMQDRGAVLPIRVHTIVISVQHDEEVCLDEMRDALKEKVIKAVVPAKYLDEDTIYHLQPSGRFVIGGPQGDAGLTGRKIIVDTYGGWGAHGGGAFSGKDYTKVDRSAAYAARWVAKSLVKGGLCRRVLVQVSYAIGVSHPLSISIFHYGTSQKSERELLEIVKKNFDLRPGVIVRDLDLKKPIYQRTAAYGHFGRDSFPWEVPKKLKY

SMILES	IC50 [1] [nM]	IC50 [2] [nM]	IC50 [3] [nM]	IC50 [4] [nM]
Cn1cc2cc(-n3nc4ccn(CC5CC5)c4c(-c4ccc(OC(F)F)nc4)c3=O)ccc2n1 [Example 113, 5-(cyclopropylmethyl)-4-(6-(difluoromethoxy)pyridin-3-yl)-2-(2-methyl-2H-indazol-5-yl)-2,5-dihydro-3H-pyrrolo[3,2-c]pyridazin-3-one]	< 100	< 100	< 100	> 1000
Cn1cc2cc(-n3nc4c(C#N)cn(CC5CC5)c4c(-c4ccc(OC(F)F)nc4)c3=O)ccc2n1 [Example 114, 5-(cyclopropylmethyl)-4-(6-(difluoromethoxy)pyridin-3-yl)-2-(2-methyl-2H-indazol-5-yl)-3-oxo-3,5-dihydro-2H-pyrrolo[3,2-c]pyridazine-7-carbonitrile]	< 100	< 100	< 100	> 1000
CC(C)Cn1ccc2nn(-c3ccc4nn(C)cc4c3)c(=O)c(-c3ccc(OC(F)F)cc3)c21 [Example 115, 4-(4-(difluoromethoxy)phenyl)-5-isobutyl-2-(2-methyl-2H-indazol-5-yl)-2,5-dihydro-3H-pyrrolo[3,2-c]pyridazin-3-one]	< 100	< 100	< 100	> 1000
Cn1cc2cc(-n3nc4c(C#N)cn(CC5CC5)c4c(-c4ccc(C(F)(F)F)nc4)c3=O)ccc2n1 [Example 119, 5-(cyclopropylmethyl)-2-(2-methyl-2H-indazol-5-yl)-3-oxo-4-(6-(trifluoromethyl)pyridin-3-yl)-3,5-dihydro-2H-pyrrolo[3,2-c]pyridazine-7-carbonitrile]	< 100	> 1000	> 1000	> 1000
Cn1cc2cc(-n3nc4c(C#N)cn(CC5CC5)c4c(-c4ccc(C5(C#N)CC5)nc4)c3=O)ccc2n1 [Example 120, 4-(6-(1-cyanocyclopropyl)pyridin-3-yl)-5-(cyclopropylmethyl)-2-(2-methyl-2H-indazol-5-yl)-3-oxo-3,5-dihydro-2H-pyrrolo[3,2-c]pyridazine-7-carbonitrile]	< 100	100 to 1000	> 1000	> 1000
[2H]C([2H])([2H])Oc1ccc(-n2nc3ccn(CC4CC4)c3c(-c3ccc(C4CC4)nc3)c2=O)cc1 [Example 122, 5-(cyclopropylmethyl)-4-(6-cyclopropylpyridin-3-yl)-2-(4-(methoxy-d3)phenyl)-2,5-dihydro-3H-pyrrolo[3,2-c]pyridazin-3-one]	< 100	< 100	< 100	> 1000

More lines, now with the values ahead:

IC50 [1] [nM]	IC50 [2] [nM]	IC50 [3] [nM]	IC50 [4] [nM]	SMILES
< 100	< 100	100 to 1000	> 1000	CC(C)Cn1cc(C#N)c2nn(-c3ccc4nn(C)cc4c3)c(=O)c(-c3ccc(OC(F)F)cc3)c21 [Example 116, 4-(4-(difluoromethoxy)phenyl)-5-isobutyl-2-(2-methyl-2H-indazol-5-yl)-3-oxo-3,5-dihydro-2H-pyrrolo[3,2-c]pyridazine-7-carbonitrile]
< 100	< 100	< 100	> 1000	Cn1cc2cc(-n3nc4c(I)cn(CC5CC5)c4c(-c4ccc(C5CC5)nc4)c3=O)ccc2n1 [Example 117, 5-(cyclopropylmethyl)-4-(6-cyclopropylpyridin-3-yl)-7-iodo-2-(2-methyl-2H-indazol-5-yl)-2,5-dihydro-3H-pyrrolo[3,2-c]pyridazin-3-one]
< 100	< 100	< 100	> 1000	Cn1cc2cc(-n3nc4ccn(CC5CC5)c4c(-c4ccc(C(F)(F)F)nc4)c3=O)ccc2n1 [Example 118, 5-(cyclopropylmethyl)-2-(2-methyl-2H-indazol-5-yl)-4-(6-(trifluoromethyl)pyridin-3-yl)-2,5-dihydro-3H-pyrrolo[3,2-c]pyridazin-3-one]

From patent US20220169654A1, “New Organic Compounds” (Servier Pharmaceuticals LLC, priority 2020, published 2022)
